Results: publication PMC5908295 (Oncotarget, 2018)

Columns and labels:
[1] = system: S6 phosphorylation (Ser235/236) in MV-4-11 cells; assay: S6 phosphorylation, flow cytometry; assay type: cell-based; conditions: Homo sapiens, MV4-11; MV-4-11, 4 hours
Protocol: (§1) For biomarker experiments, MV-4-11, MOLM-13 and KG-1 cells were seeded at 1 × 10^6 in 3 ml of medium, while MOLM-16 cells were seeded at 1 × 10^6 in 4 ml of medium and left for ~ 18 hours (37°C, 5% CO2). […] Final concertation of DMSO was 0.1%. After 4h of incubation cells were harvested, centrifuged and washed with ice-cold PBS. Cells were fixed with 4% paraformaldehyde buffered with PBS and permeabilized with 90% methanol. Cells were incubated with primary antibody (S6 phopspho-Ser235/236, Cell Signaling, Cat. No: 4856) diluted 1:200 in 0.5% BSA/PBS. […] Cells were analyzed on Flow Cytometer BD LSR II with an excitation wavelength of 488 nm and peak emission 590 nm.

[2] = system: S6 phosphorylation (Ser235/236) in MOLM-16 cells; assay: S6 phosphorylation, flow cytometry; assay type: cell-based; conditions: MOLM16; MOLM-16, 4 hours
Protocol: as §1

[3] = system: S6 phosphorylation (Ser235/236) in MOLM-13 cells; assay: S6 phosphorylation, flow cytometry; assay type: cell-based; conditions: Homo sapiens; MOLM-13, 4 hours
Protocol: as §1

[4] = system: S6 phosphorylation (Ser235/236) in KG-1 cells; assay: S6 phosphorylation, flow cytometry; assay type: cell-based; conditions: Homo sapiens; KG-1, 4 hours
Protocol: as §1

[5] = system: Phospho-S6 in MOLM-16 tumors; assay: PK/PD: phospho-S6 in MOLM-16 tumors after dosing; assay type: in vivo, SCID/beige mice; conditions: 25 mg/kg BID for 3 days
Protocol: At the end of the experiment, mice were sacrificed 4, 8 and 24h after the last dose (three mice per time point). Plasma and tumor samples were collected and stored at −80°C for further analysis.

[6] = Metabolic stability, liver S9 fraction; assay type: in vitro ADME; conditions: Rat, 37 °C, read-out: Liver S9 fraction t1/2 (converted)
CYP1A2 = CYP1A2 (Homo sapiens, UniProt P05177); assay: CYP isoforms inhibition; assay type: in vitro ADME; conditions: 5-dose, 3-fold dilution starting at 30 µM; in-house
Protocol: (§2) or absence of enzyme cofactors. The assay was performed microsomes. (Supplementary Table 7).
(§3) with the respective reference samples (i.e. without measured at Cambridge Bioscience Limited (except
(§4) cofactors). After incubation, drug transformation by liver CYP1A2 inhibition which was measured in-house). The
(§5) enzymes was terminated by adding cold acetonitrile.
(§6) loss of compound was determined by LC-MS analysis. serial dilution starting at 30 μM. The control compound
(§7) The analysis of two standard compounds (i.e. positive a very weak potential for CYP inhibition with IC50
(§8) and negative controls) was included. […]

CYP2C8 = biological target: T1, CYP2C8 (Homo sapiens, UniProt P10632); assay: CYP isoforms inhibition; assay type: in vitro ADME; conditions: 5-dose, 3-fold dilution starting at 30 µM
T1 construct: Cambridge Bioscience Limited (ran the assay)
Protocol: as §2, §3, §4, §5, §6, §7, §8

CYP2B6 = biological target: T2, CYP2B6 (Homo sapiens, UniProt P20813); assay: CYP isoforms inhibition; assay type: in vitro ADME; conditions: 5-dose, 3-fold dilution starting at 30 µM
T2 construct: Cambridge Bioscience Limited (ran the assay)
Protocol: as §2, §3, §4, §5, §6, §7, §8

PL-21 = assay: MTS viability assay, 72 h; conditions: PL-21, 72 h
Protocol: (§9) 15-25 ×10^3 of MV-4-11, MOLM-13, MOLM-14, MOLM-16, KG-1, Eol-1, SKM-1, PL-21, GDM-1, SKNO-1, RS4;11, Kasumi-3 and Kasumi-6 cells were seeded in 150 μL of culture medium onto individual wells in a 96 well plates, in triplicates. On the same day, 50 μL of medium containing tested inhibitor was added to the wells. Each compound was tested at 8 concentrations, in triplicates. As a negative control, the medium containing 0.1% DMSO was used. […] Staurosporine was used at 10 μM as a positive control. One the day of drug addition, basal signal from untreated cells was measured from in triplicate to determine time zero (T0). […] GI50 and LC50 values were extrapolated from a variable (four-parameter) dose-response curve fitted in GraphPad Prism.

KG-1 (FLT3-WT) tumor = assay: KG-1 subcutaneous xenograft; assay type: in vivo; conditions: KG-1, SCID mice; doses not given
Description: All animals were handled in strict accordance with good animal practice as defined by the relevant national and local animal welfare bodies. SCID and SCID/beige C.B-17 mice were provided by Harlan Laboratories or Charles River Laboratories, and were maintained in pathogen free conditions. For the xenograft experiments, age-matched (9-11 weeks old) females were used. 5×10^6 of MV-4-11 or MOLM-16 cells were suspended in a mixture (1:1, v:v) of PBS with Matrigel (BD Biosciences,) and injected subcutaneously (sc), in a total volume of 100 μL, above the groin on the right hind limb. For MOLM-13 and KG-1 cells, a mixture (3:1, v:v) of PBS and Matrigel HC (BD Bioscience,) was used to inject 5 × 10^6 of cell per mouse subcutaneously (sc), in a total volume of 100 μL. When tumors reached 100-130 mm^3, mice were randomized into uniform groups (6-9 mice per group) and subsequently administered the compound. […] At the end of the experiment, mice were anesthetized with isofluran and blood samples for total cell counts and biochemistry were obtained by retro-orbital bleeding. […] 5×10^6 cells suspended in a mixture (3:1, v:v) of PBS and Matrigel were injected as described above. […] Tumor volume was monitored every second day and calculated using the formula: TV = (a^2×b)/2, where “a” is the short axis in millimeters, and “b” is the long axis in millimeters. Body weight was assessed every day.

SIG-M5 = assay: MTS viability assay, 72 h; conditions: Homo sapiens, SIG-M5, 72 h
Protocol: On the same day, 50 μL of medium containing tested inhibitor was added to the wells. Each compound was tested at 8 concentrations, in triplicates. As a negative control, the medium containing 0.1% DMSO was used. […] Staurosporine was used at 10 μM as a positive control. One the day of drug addition, basal signal from untreated cells was measured from in triplicate to determine time zero (T0). […] GI50 and LC50 values were extrapolated from a variable (four-parameter) dose-response curve fitted in GraphPad Prism.

SKNO-1 = assay: MTS viability assay, 72 h; conditions: SKNO-1, 72 h
Protocol: as §9

[7] = Metabolic stability, liver microsomes; assay type: in vitro ADME; conditions: Rat, 37 °C, read-out: Liver microsomes t1/2 (converted)
[8] = Metabolic stability, liver S9 fraction; assay type: in vitro ADME; conditions: Dog, 37 °C, read-out: Liver S9 fraction t1/2 (converted)
[9] = Blood biochemistry in mice with MV-4-11 tumors; assay type: in vivo; conditions: treatment day 15
Description: All animals were handled in strict accordance with good animal practice as defined by the relevant national and local animal welfare bodies. SCID and SCID/beige C.B-17 mice were provided by Harlan Laboratories or Charles River Laboratories, and were maintained in pathogen free conditions. For the xenograft experiments, age-matched (9-11 weeks old) females were used. 5×10^6 of MV-4-11 or MOLM-16 cells were suspended in a mixture (1:1, v:v) of PBS with Matrigel (BD Biosciences,) and injected subcutaneously (sc), in a total volume of 100 μL, above the groin on the right hind limb. For MOLM-13 and KG-1 cells, a mixture (3:1, v:v) of PBS and Matrigel HC (BD Bioscience,) was used to inject 5 × 10^6 of cell per mouse subcutaneously (sc), in a total volume of 100 μL. When tumors reached 100-130 mm^3, mice were randomized into uniform groups (6-9 mice per group) and subsequently administered the compound. […] At the end of the experiment, mice were anesthetized with isofluran and blood samples for total cell counts and biochemistry were obtained by retro-orbital bleeding. […] 5×10^6 cells suspended in a mixture (3:1, v:v) of PBS and Matrigel were injected as described above. When the tumor volume reached ~120 mm^3, mice were randomized into uniform groups (5 mice per group) and the compound then administered. […] Tumor volume was monitored every second day and calculated using the formula: TV = (a^2×b)/2, where “a” is the short axis in millimeters, and “b” is the long axis in millimeters. Body weight was assessed every day.
Supplementary Table 9: Related to Figure 5C. […] The assessment of
was performed on treatment day 15.
AST – Aspartate aminotransferase, ALT – Alanine transaminase, ALP – alkaline phosphatase, UREA – blood urea nitrogen,
CREA – Creatinine, CK – Creatine kinase, TP- total protein; ALB – Albumin. […]

[10] = Metabolic stability, liver microsomes; assay type: in vitro ADME; conditions: Human, 37 °C, read-out: Liver microsomes t1/2 (converted)

T1 sequence (P10632 whole entry, canonical isoform): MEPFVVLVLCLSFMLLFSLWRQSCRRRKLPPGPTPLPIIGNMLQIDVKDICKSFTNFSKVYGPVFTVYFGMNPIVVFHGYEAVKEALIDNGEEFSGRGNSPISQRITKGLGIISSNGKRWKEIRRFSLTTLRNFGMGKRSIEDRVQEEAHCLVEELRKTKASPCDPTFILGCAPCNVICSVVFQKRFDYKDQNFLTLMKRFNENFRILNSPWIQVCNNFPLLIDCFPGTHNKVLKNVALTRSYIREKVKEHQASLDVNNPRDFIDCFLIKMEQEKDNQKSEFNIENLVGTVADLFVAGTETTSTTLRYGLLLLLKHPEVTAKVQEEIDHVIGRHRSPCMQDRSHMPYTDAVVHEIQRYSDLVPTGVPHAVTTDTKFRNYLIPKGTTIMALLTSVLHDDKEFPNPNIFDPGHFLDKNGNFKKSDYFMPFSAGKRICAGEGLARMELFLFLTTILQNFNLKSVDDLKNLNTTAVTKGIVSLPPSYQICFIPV
Chain of CYP1A2 (P05177 whole entry, canonical isoform): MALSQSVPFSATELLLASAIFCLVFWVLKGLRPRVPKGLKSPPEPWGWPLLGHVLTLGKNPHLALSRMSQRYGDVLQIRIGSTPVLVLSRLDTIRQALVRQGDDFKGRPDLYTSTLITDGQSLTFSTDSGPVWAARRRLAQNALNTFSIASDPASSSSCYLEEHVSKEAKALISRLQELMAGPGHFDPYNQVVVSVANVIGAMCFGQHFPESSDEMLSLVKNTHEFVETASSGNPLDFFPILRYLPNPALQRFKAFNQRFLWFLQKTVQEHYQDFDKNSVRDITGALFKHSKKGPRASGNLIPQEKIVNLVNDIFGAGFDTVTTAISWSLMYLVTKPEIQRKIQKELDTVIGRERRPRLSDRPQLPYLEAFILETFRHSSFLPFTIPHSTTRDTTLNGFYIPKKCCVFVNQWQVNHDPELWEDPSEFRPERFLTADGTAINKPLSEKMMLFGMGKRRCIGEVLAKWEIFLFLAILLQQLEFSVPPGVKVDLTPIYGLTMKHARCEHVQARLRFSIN
T2 sequence (P20813 whole entry, canonical isoform): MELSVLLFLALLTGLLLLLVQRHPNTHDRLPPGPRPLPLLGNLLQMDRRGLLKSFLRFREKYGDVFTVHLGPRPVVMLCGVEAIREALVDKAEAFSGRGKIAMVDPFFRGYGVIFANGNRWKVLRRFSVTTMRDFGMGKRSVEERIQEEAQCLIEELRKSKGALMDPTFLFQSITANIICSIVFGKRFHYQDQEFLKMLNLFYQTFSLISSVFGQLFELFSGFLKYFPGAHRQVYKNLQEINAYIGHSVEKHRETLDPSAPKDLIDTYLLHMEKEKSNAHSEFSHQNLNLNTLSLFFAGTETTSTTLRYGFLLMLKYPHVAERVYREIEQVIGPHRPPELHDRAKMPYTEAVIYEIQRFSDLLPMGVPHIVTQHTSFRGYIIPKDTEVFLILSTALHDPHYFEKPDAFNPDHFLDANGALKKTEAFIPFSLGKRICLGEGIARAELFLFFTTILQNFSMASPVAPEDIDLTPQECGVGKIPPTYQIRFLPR

SMILES: CC(C)n1c(C2CCNCC2)nc2c([N+](=O)[O-])c(Br)c(Br)cc21 [SEL24-B489, 5,6-dibromo-4-nitro-2-(piperidin-4-yl)-1-(propan-2-yl)-1H-1,3-benzodiazole]
- IC50 [1]: 0.013 µM
- IC50 [2]: 0.058 µM
- IC50 [3]: 0.102 µM
- IC50 [4]: 0.195 µM
- time after the last dose that Phospho-S6 remained suppressed [5]: up to 8 hours
- half-life at 1 µM [6]: 4.3 h
- IC50 (CYP1A2): > 30 µM
- IC50 (CYP2C8): > 30 µM
- IC50 (CYP2B6): > 40 µM
- GI50 (PL-21): 1.71 µM
- TGI (KG-1 (FLT3-WT) tumor): ~ 50%
- GI50 (SIG-M5): 0.806 µM
- CC50 (SIG-M5; read-out: LC50): 3.44 µM
- GI50 (SKNO-1): 0.018 µM
- half-life at 1 µM [7]: 21.8 h
- half-life at 1 µM [8]: 6.3 h
- ALB ([9]; SEL24-B489 25 mg/kg): 5.3 g/dL
- ALP ([9]; SEL24-B489 25 mg/kg): 94.2 U/L
- AST ([9]; SEL24-B489 25 mg/kg): 202.4 U/L
- CK ([9]; SEL24-B489 25 mg/kg): 2076 U/L
- CREA ([9]; SEL24-B489 25 mg/kg): 0.40 mg/dL
- K ([9]; SEL24-B489 25 mg/kg): 5.3 mM
- TP ([9]; SEL24-B489 25 mg/kg): 5.6 g/dL
- UREA ([9]; SEL24-B489 25 mg/kg): 6.0 mmol/L
- ALB ([9]; SEL24-B489 50 mg/kg): 4.4 g/dL
- ALP ([9]; SEL24-B489 50 mg/kg): 97.2 U/L
- ALT ([9]; SEL24-B489 50 mg/kg): 49.4 U/L
- AST ([9]; SEL24-B489 50 mg/kg): 135.2 U/L
- CK ([9]; SEL24-B489 50 mg/kg): 1206 U/L
- CREA ([9]; SEL24-B489 50 mg/kg): 0.49 mg/dL
- K ([9]; SEL24-B489 50 mg/kg): 5.3 mM
- Na ([9]; SEL24-B489 50 mg/kg): 141 mM
- TP ([9]; SEL24-B489 50 mg/kg): 5.1 g/dL
- UREA ([9]; SEL24-B489 50 mg/kg): 6.6 mmol/L
- half-life at 1 µM [10]: 21.1 h
